# According to article PMC5218480 (PLoS ONE, 2017):
# System: MV-4-11 cells
# Assay: Gene expression microarray analysis (Affymetrix PrimeView) and GSEA
# Assay type: cell-based, human
# Design: RFU PODN (11730768_x_at) / Fold change /veh PODN (11730768_x_at) / RFU LINC00158 (11744669_a_at) / Fold change /veh LINC00158 (11744669_a_at) / RFU DUSP10 (11751237_a_at) / Fold change /veh DUSP10 (11751237_a_at) / RFU ID3 (11757404_x_at) / Fold change /veh ID3 (11757404_x_at) / RFU PLEKHG5 (11737974_s_at) / Fold change /veh PLEKHG5 (11737974_s_at) / RFU LRRC4B (11730491_at) / Fold change /veh LRRC4B (11730491_at) / RFU GIMAP4 (11747438_a_at) / Fold change /veh GIMAP4 (11747438_a_at) / RFU KRT8 (11758183_x_at) / Fold change /veh KRT8 (11758183_x_at) / RFU CNN1 (11734310_a_at) / Fold change /veh CNN1 (11734310_a_at) / RFU VPS37D (11726825_at) / Fold change /veh VPS37D (11726825_at) / RFU C10orf10 (11716522_x_at) / Fold change /veh C10orf10 (11716522_x_at) / RFU KIR2DL2 /// KIR2DL4 /// KIR2DL5A /// KIR2DL5B /// KIR2DS1 /// KIR2DS2 /// KIR2DS3 /// KIR2DS4 /// KIR3DL3 /// KIR3DL3 /// KIR3DS1 (11738374_at) / Fold change /veh KIR2DL2 /// KIR2DL4 /// KIR2DL5A /// KIR2DL5B /// KIR2DS1 /// KIR2DS2 /// KIR2DS3 /// KIR2DS4 /// KIR3DL3 /// KIR3DL3 /// KIR3DS1 (11738374_at) / RFU C1QL1 (11718748_at) / Fold change /veh C1QL1 (11718748_at) / RFU TMPRSS4 (11747572_a_at) / Fold change /veh TMPRSS4 (11747572_a_at) / RFU HAMP (11756126_x_at) / Fold change /veh HAMP (11756126_x_at) / RFU RNFT2 (11725882_a_at) / Fold change /veh RNFT2 (11725882_a_at) / RFU NR4A2 (11747474_a_at) / Fold change /veh NR4A2 (11747474_a_at) / RFU ABCC12 (11746883_a_at) / Fold change /veh ABCC12 (11746883_a_at) / RFU TMEM136 (11760407_x_at) / Fold change /veh TMEM136 (11760407_x_at) / RFU CLDN22 /// WWC2 (11732394_at) / Fold change /veh CLDN22 /// WWC2 (11732394_at) / RFU HLA-DPB1 (11760878_x_at) / Fold change /veh HLA-DPB1 (11760878_x_at) / RFU SPINT1 (11716480_a_at) / Fold change /veh SPINT1 (11716480_a_at) / RFU GAP43 (11754022_s_at) / Fold change /veh GAP43 (11754022_s_at) / RFU A4GNT (11735810_at) / Fold change /veh A4GNT (11735810_at) / RFU PRB3 (11715151_x_at) / Fold change /veh PRB3 (11715151_x_at) / RFU TUBB4B (11761932_at) / Fold change /veh TUBB4B (11761932_at) / RFU CAPN14 (11732068_a_at) / Fold change /veh CAPN14 (11732068_a_at) / RFU TMCC2 (11721928_a_at) / Fold change /veh TMCC2 (11721928_a_at) / RFU IRGQ (11745062_a_at) / Fold change /veh IRGQ (11745062_a_at) / RFU FAM174B (11720279_a_at) / Fold change /veh FAM174B (11720279_a_at) / RFU TMPRSS4 (11748680_a_at) / Fold change /veh TMPRSS4 (11748680_a_at) / RFU FAM212B (11763350_a_at) / Fold change /veh FAM212B (11763350_a_at) / RFU PLEKHG5 (11743358_a_at) / Fold change /veh PLEKHG5 (11743358_a_at) / RFU ZSCAN30 (11745921_a_at) / Fold change /veh ZSCAN30 (11745921_a_at) / RFU CMKLR1 (11741424_a_at) / Fold change /veh CMKLR1 (11741424_a_at) / RFU LOC101060620 /// MAPK8IP1 (11723275_at) / Fold change /veh LOC101060620 /// MAPK8IP1 (11723275_at) / RFU SPTSSB (11747773_x_at) / Fold change /veh SPTSSB (11747773_x_at) / RFU PRSS12 (11739890_at) / Fold change /veh PRSS12 (11739890_at) / RFU BIN1 (11741810_x_at) / Fold change /veh BIN1 (11741810_x_at) / RFU WNT11 (11732464_a_at) / Fold change /veh WNT11 (11732464_a_at) / RFU C10orf10 (11716521_a_at) / Fold change /veh C10orf10 (11716521_a_at) / RFU C5orf56 (11738089_at) / Fold change /veh C5orf56 (11738089_at) / RFU CYB561 (11721691_x_at) / Fold change /veh CYB561 (11721691_x_at) / RFU ANKRD19P (11752326_a_at) / Fold change /veh ANKRD19P (11752326_a_at) / RFU OR2T12 /// OR2T33 /// OR2T8 (11738714_s_at) / Fold change /veh OR2T12 /// OR2T33 /// OR2T8 (11738714_s_at) / RFU VCAN (11748164_a_at) / Fold change /veh VCAN (11748164_a_at) / RFU JSRP1 (11732532_at) / Fold change /veh JSRP1 (11732532_at) / RFU KRTAP10-11 (11738290_x_at) / Fold change /veh KRTAP10-11 (11738290_x_at) / RFU MYO3A (11730013_a_at) / Fold change /veh MYO3A (11730013_a_at) / RFU EBF3 (11725865_a_at) / Fold change /veh EBF3 (11725865_a_at) / RFU CAMK2N1 (11719241_x_at) / Fold change /veh CAMK2N1 (11719241_x_at) / RFU C5orf56 (11738088_a_at) / Fold change /veh C5orf56 (11738088_a_at) / RFU OLFML3 (11715873_a_at) / Fold change /veh OLFML3 (11715873_a_at) / RFU LOC100653217 /// NTM (11731650_a_at) / Fold change /veh LOC100653217 /// NTM (11731650_a_at) / RFU MAPK11 (11762145_a_at) / Fold change /veh MAPK11 (11762145_a_at) / RFU FIZ1 (11724087_x_at) / Fold change /veh FIZ1 (11724087_x_at) / RFU OASL (11726364_x_at) / Fold change /veh OASL (11726364_x_at) / RFU SOX15 (11748057_x_at) / Fold change /veh SOX15 (11748057_x_at) / RFU CD79A (11719716_a_at) / Fold change /veh CD79A (11719716_a_at) / RFU HIST1H1D (11736915_at) / Fold change /veh HIST1H1D (11736915_at) / RFU CASKIN2 (11723855_a_at) / Fold change /veh CASKIN2 (11723855_a_at) / RFU LOC730098 (11760151_x_at) / Fold change /veh LOC730098 (11760151_x_at) / RFU OR4N2 (11742367_at) / Fold change /veh OR4N2 (11742367_at) / RFU PRRT2 (11749266_a_at) / Fold change /veh PRRT2 (11749266_a_at) / RFU SNX32 (11753110_a_at) / Fold change /veh SNX32 (11753110_a_at) / RFU CDHR5 (11726645_a_at) / Fold change /veh CDHR5 (11726645_a_at) / RFU RCAN1 (11760418_a_at) / Fold change /veh RCAN1 (11760418_a_at) / RFU FAM167A (11723789_a_at) / Fold change /veh FAM167A (11723789_a_at) / RFU FAM26E (11764081_at) / Fold change /veh FAM26E (11764081_at) / RFU ISYNA1 (11749810_s_at) / Fold change /veh ISYNA1 (11749810_s_at) / RFU ACY1 (11761880_at) / Fold change /veh ACY1 (11761880_at) / RFU 11764098_at / Fold change /veh 11764098_at / RFU SAMD14 (11745864_x_at) / Fold change /veh SAMD14 (11745864_x_at) / RFU NPB (11741838_a_at) / Fold change /veh NPB (11741838_a_at) / RFU TMPRSS6 (11731388_a_at) / Fold change /veh TMPRSS6 (11731388_a_at) / RFU KRTAP10-2 (11738614_at) / Fold change /veh KRTAP10-2 (11738614_at) / RFU ARHGAP8 /// PRR5-ARHGAP8 (11727945_x_at) / Fold change /veh ARHGAP8 /// PRR5-ARHGAP8 (11727945_x_at) / RFU KRTAP5-7 /// NADSYN1 (11734609_at) / Fold change /veh KRTAP5-7 /// NADSYN1 (11734609_at) / RFU RASL12 (11751679_a_at) / Fold change /veh RASL12 (11751679_a_at) / RFU CDKN2B (11736163_a_at) / Fold change /veh CDKN2B (11736163_a_at) / RFU PRF1 (11729649_at) / Fold change /veh PRF1 (11729649_at) / RFU, ZNF638 /// ZNF638-IT1 / Fold change vs veh, ZNF638 /// ZNF638-IT1 / RFU, PANK3 / Fold change vs veh, PANK3 / RFU, SH3YL1 / Fold change vs veh, SH3YL1 / RFU, ZEB2 / Fold change vs veh, ZEB2 / RFU, NRIP1 / Fold change vs veh, NRIP1 / RFU, PTTG1IP / Fold change vs veh, PTTG1IP / RFU, CAPN2 / Fold change vs veh, CAPN2 / RFU, MED14 / Fold change vs veh, MED14 / RFU, SNORA58 / Fold change vs veh, SNORA58 / RFU, C1orf63 / Fold change vs veh, C1orf63 / RFU, LRRFIP1 / Fold change vs veh, LRRFIP1 / RFU, NDUFAF7 / Fold change vs veh, NDUFAF7 / RFU, SLC12A2 / Fold change vs veh, SLC12A2 / RFU, IBTK / Fold change vs veh, IBTK / RFU, ESF1 / Fold change vs veh, ESF1 / Fold change vs veh, TMEM50B / RFU, TAOK1 / Fold change vs veh, TAOK1 / RFU, ACBD3 / Fold change vs veh, ACBD3 / RFU, TMA16 / Fold change vs veh, TMA16 / RFU, RWDD3 / Fold change vs veh, RWDD3 / RFU, BCAT1 / Fold change vs veh, BCAT1 / RFU, EDEM3 / Fold change vs veh, EDEM3 / RFU, TMEM33 / Fold change vs veh, TMEM33 / RFU, WDR75 / Fold change vs veh, WDR75 / RFU, AHCTF1 / Fold change vs veh, AHCTF1 / RFU, TFRC / Fold change vs veh, TFRC / RFU, ZDHHC17 / Fold change vs veh, ZDHHC17 / RFU, NOM1 / Fold change vs veh, NOM1 / RFU, ARL8B / Fold change vs veh, ARL8B / RFU, ZBTB11 / Fold change vs veh, ZBTB11 / RFU, TAMM41 / Fold change vs veh, TAMM41 / RFU, KIAA1704 /// LOC100996395 / Fold change vs veh, KIAA1704 /// LOC100996395 / RFU, ING1 / Fold change vs veh, ING1 / RFU, TRMT61B / Fold change vs veh, TRMT61B / RFU, FUBP3 / Fold change vs veh, FUBP3 / RFU, TP53 / Fold change vs veh, TP53 / RFU, TNKS2 / Fold change vs veh, TNKS2 / RFU, ZFP14 / Fold change vs veh, ZFP14 / RFU, ACTR2 / Fold change vs veh, ACTR2 / RFU, PPP3R1 / Fold change vs veh, PPP3R1 / RFU, PIK3R1 / Fold change vs veh, PIK3R1 / RFU, HNRNPA1 / Fold change vs veh, HNRNPA1 / RFU, RNF170 / Fold change vs veh, RNF170 / RFU, ZNF28 / Fold change vs veh, ZNF28 / RFU, RNGTT / Fold change vs veh, RNGTT / RFU, OGT / Fold change vs veh, OGT / RFU, BRD1 / Fold change vs veh, BRD1 / RFU, MARS / Fold change vs veh, MARS / RFU, ZNF655 / Fold change vs veh, ZNF655 / RFU, FAHD1 / Fold change vs veh, FAHD1 / RFU, BDP1 / Fold change vs veh, BDP1 / RFU, LRRCC1 / Fold change vs veh, LRRCC1 / RFU, ARID1A / Fold change vs veh, ARID1A / RFU, ZNF146 / Fold change vs veh, ZNF146 / RFU, ZNF330 / Fold change vs veh, ZNF330 / RFU, GPN3 / Fold change vs veh, GPN3 / RFU, C9orf123 / Fold change vs veh, C9orf123 / RFU, N4BP2L2 / Fold change vs veh, N4BP2L2 / RFU, ARFIP1 / Fold change vs veh, ARFIP1 / RFU, FAM179B / Fold change vs veh, FAM179B / RFU, BCL10 / Fold change vs veh, BCL10 / RFU, UHRF1BP1L / Fold change vs veh, UHRF1BP1L / RFU, BET1 / Fold change vs veh, BET1 / RFU, CNOT2 / Fold change vs veh, CNOT2 / RFU, ZNF268 / Fold change vs veh, ZNF268 / Fold change vs veh, ZNF507 / RFU, DGCR2 / Fold change vs veh, DGCR2 / RFU, WDSUB1 / Fold change vs veh, WDSUB1 / Fold change vs veh, HSP90B1 /// MIR3652 / RFU, ADSS / Fold change vs veh, ADSS / RFU, GK / Fold change vs veh, GK / RFU, ZNF148 / Fold change vs veh, ZNF148 / RFU, TAF9 / Fold change vs veh, TAF9 / RFU, SLC1A5 / Fold change vs veh, SLC1A5 / RFU, SLMO2 / Fold change vs veh, SLMO2 / RFU, ABCC4 / Fold change vs veh, ABCC4 / RFU, LOC101060439 /// RAP1B / Fold change vs veh, LOC101060439 /// RAP1B / RFU, RFX7 / Fold change vs veh, RFX7 / RFU, GTPBP10 / Fold change vs veh, GTPBP10 / RFU, CNEP1R1 / Fold change vs veh, CNEP1R1 / RFU, BIVM-ERCC5 /// ERCC5 / Fold change vs veh, BIVM-ERCC5 /// ERCC5 / RFU, ILF3 / Fold change vs veh, ILF3 / RFU 11762660_at / Fold change /veh 11762660_at / RFU VCAN (11757783_s_at) / Fold change /veh VCAN (11757783_s_at) / RFU DDX43 (11728927_at) / Fold change /veh DDX43 (11728927_at) / RFU KRT8 (11758188_x_at) / Fold change /veh KRT8 (11758188_x_at) / RFU NKD1 (11759106_at) / Fold change /veh NKD1 (11759106_at) / RFU SRD5A1 (11742802_a_at) / Fold change /veh SRD5A1 (11742802_a_at) / RFU TPSAB1 /// TPSB2 (11721975_s_at) / Fold change /veh TPSAB1 /// TPSB2 (11721975_s_at) / RFU GSTM3 (11746129_a_at) / Fold change /veh GSTM3 (11746129_a_at) / RFU IL23R (11737362_x_at) / Fold change /veh IL23R (11737362_x_at) / RFU TMEM51 (11727254_a_at) / Fold change /veh TMEM51 (11727254_a_at) / RFU PIWIL2 (11732686_x_at) / Fold change /veh PIWIL2 (11732686_x_at) / RFU ORM1 (11744905_x_at) / Fold change /veh ORM1 (11744905_x_at) / RFU CCDC152 (11743942_at) / Fold change /veh CCDC152 (11743942_at) / RFU ECM1 (11717891_a_at) / Fold change /veh ECM1 (11717891_a_at) / RFU IL23R (11748794_a_at) / Fold change /veh IL23R (11748794_a_at) / RFU TNFAIP8L3 (11732012_x_at) / Fold change /veh TNFAIP8L3 (11732012_x_at) / RFU MBOAT4 (11741988_at) / Fold change /veh MBOAT4 (11741988_at) / RFU 11764193_at / Fold change /veh 11764193_at / RFU TMEM53 (11763286_at) / Fold change /veh TMEM53 (11763286_at) / RFU MAGEB2 (11727129_at) / Fold change /veh MAGEB2 (11727129_at) / RFU TMEM200A (11744735_a_at) / Fold change /veh TMEM200A (11744735_a_at) / RFU CCDC152 (11751479_a_at) / Fold change /veh CCDC152 (11751479_a_at) / RFU FAM211A (11726209_a_at) / Fold change /veh FAM211A (11726209_a_at) / RFU RGS16 (11746705_a_at) / Fold change /veh RGS16 (11746705_a_at) / RFU VCAN (11755009_s_at) / Fold change /veh VCAN (11755009_s_at) / RFU RHOB (11743442_s_at) / Fold change /veh RHOB (11743442_s_at) / RFU RGS16 (11720943_a_at) / Fold change /veh RGS16 (11720943_a_at) / RFU RGS16 (11720944_at) / Fold change /veh RGS16 (11720944_at) / RFU, VPS4B / Fold change vs veh, VPS4B / RFU, CREB1 / Fold change vs veh, CREB1 / RFU, DNAJC13 / Fold change vs veh, DNAJC13 / RFU, GNAQ / Fold change vs veh, GNAQ / RFU, CDK5R1 / Fold change vs veh, CDK5R1 / RFU, ZRANB3 / Fold change vs veh, ZRANB3 / RFU, CUL4A / Fold change vs veh, CUL4A / RFU, CCNY / Fold change vs veh, CCNY / RFU, UFL1 / Fold change vs veh, UFL1 / RFU, COG3 / Fold change vs veh, COG3 / RFU, DIAPH2 / Fold change vs veh, DIAPH2 / RFU, SKA2 / Fold change vs veh, SKA2 / RFU, AFF3 / Fold change vs veh, AFF3 / RFU, LMF1 / Fold change vs veh, LMF1 / RFU, IPO11 / Fold change vs veh, IPO11 / RFU, DFFB / Fold change vs veh, DFFB / RFU, FOXP1 / Fold change vs veh, FOXP1 / RFU, CARD8 / Fold change vs veh, CARD8 / RFU, STRN3 / Fold change vs veh, STRN3 / RFU, ADK / Fold change vs veh, ADK / RFU, RASSF2 / Fold change vs veh, RASSF2 / RFU, WIPF1 / Fold change vs veh, WIPF1 / RFU, LARP1B / Fold change vs veh, LARP1B / RFU, RASA1 / Fold change vs veh, RASA1 / RFU, RB1 / Fold change vs veh, RB1 / RFU, PPFIA1 / Fold change vs veh, PPFIA1 / RFU, MAT2A / Fold change vs veh, MAT2A / RFU, CCT5 / Fold change vs veh, CCT5 / RFU, WDR92 / Fold change vs veh, WDR92 / RFU, CUX1 / Fold change vs veh, CUX1 / RFU, TTC7A / Fold change vs veh, TTC7A / RFU, TMEM135 / Fold change vs veh, TMEM135 / RFU, DEPTOR / Fold change vs veh, DEPTOR / RFU, CPM / Fold change vs veh, CPM / RFU, DNAJB6 / Fold change vs veh, DNAJB6 / RFU, CACNA2D3 / Fold change vs veh, CACNA2D3 / RFU, DTX4 / Fold change vs veh, DTX4 / RFU, TFCP2 / Fold change vs veh, TFCP2 / RFU, GMCL1 /// GMCL1P1 / Fold change vs veh, GMCL1 /// GMCL1P1 / RFU, AEBP2 / Fold change vs veh, AEBP2 / RFU, SNHG1 /// SNORD22 /// SNORD25 /// SNORD26 /// SNORD27 /// SNORD28 /// SNORD29 /// SNORD31 / Fold change vs veh, SNHG1 /// SNORD22 /// SNORD25 /// SNORD26 /// SNORD27 /// SNORD28 /// SNORD29 /// SNORD31 / Fold change (Aza/veh), C12orf56 (ProbeSet 11735607_a_at) / Fold change (ACY-1035/veh), C12orf56 (ProbeSet 11735607_a_at) / Fold change (Aza/veh), FGFR1OP (ProbeSet 11751329_s_at) / Fold change (ACY-1035/veh), FGFR1OP (ProbeSet 11751329_s_at) / Fold change (Aza/veh), VPS36 (ProbeSet 11739960_a_at) / Fold change (ACY-1035/veh), VPS36 (ProbeSet 11739960_a_at) / RFU SYPL1 (11715823_x_at) / Fold change /veh SYPL1 (11715823_x_at) / RFU IGFBP7 (11715501_s_at) / Fold change /veh IGFBP7 (11715501_s_at) / RFU REEP3 (11722064_at) / Fold change /veh REEP3 (11722064_at) / RFU IGLL1 (11728026_x_at) / Fold change /veh IGLL1 (11728026_x_at): dose or concentration left out as unconfirmed
# Conditions: ProbeSet 11724526_at; LIST B
compound,measurement,value
Nc1ncn([C@@H]2O[C@H](CO)[C@@H](O)[C@H]2O)c(=O)n1 [azacitidine],"RFU, FAHD1",119.69 RFU
